Measured values reported in PubChem BioAssay (NCI).
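Briefly, cells in 96-well plates were exposed to five compound concentrations for 48 h, and endpoints were estimated by linear interpolation. The concentration for full growth arrest is given as TGI.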

Key:
Assay in all cases: growth of human tumour cells (NCI), 48 h
HT29 colon = tested on: HT29 colon
U251 CNS = tested on: U251 CNS
KM12 colon = tested on: KM12 colon
NCI/ADR-RES ovarian = tested on: NCI/ADR-RES ovarian
LOX IMVI melanoma = tested on: LOX IMVI melanoma
RXF 393 renal = tested on: RXF 393 renal
M14 melanoma = tested on: M14 melanoma
SN12C renal = tested on: SN12C renal
HS 578T breast = tested on: HS 578T breast
SK-MEL-2 melanoma = tested on: SK-MEL-2 melanoma
MOLT-4 leukemia = tested on: MOLT-4 leukemia
UO-31 renal = tested on: UO-31 renal
HCT-15 colon = tested on: HCT-15 colon
MDA-N = tested on: MDA-N
SK-MEL-5 melanoma = tested on: SK-MEL-5 melanoma
UACC-257 melanoma = tested on: UACC-257 melanoma
SK-OV-3 ovarian = tested on: SK-OV-3 ovarian
MDA-MB-231 breast = tested on: MDA-MB-231 breast
CCRF-CEM leukemia = tested on: CCRF-CEM leukemia
NCI-H226 lung = tested on: NCI-H226 lung
SNB-75 CNS = tested on: SNB-75 CNS
MCF7 breast = tested on: MCF7 breast
NCI-H522 lung = tested on: NCI-H522 lung
A498 renal = tested on: A498 renal
HOP-62 NSCLC = tested on: HOP-62 NSCLC
PC-3 prostate = tested on: PC-3 prostate
A549 NSCLC = tested on: A549 NSCLC
SF-268 CNS = tested on: SF-268 CNS
EKVX NSCLC = tested on: EKVX NSCLC
TK-10 renal = tested on: TK-10 renal
786-0 renal = tested on: 786-0 renal
NCI-H460 lung = tested on: NCI-H460 lung
RPMI-8226 leukemia = tested on: RPMI-8226 leukemia
HOP-92 NSCLC = tested on: HOP-92 NSCLC
SF-295 CNS = tested on: SF-295 CNS
MDA-MB-435 = tested on: MDA-MB-435
DU-145 prostate = tested on: DU-145 prostate
CAKI-1 renal = tested on: CAKI-1 renal
BT-549 breast = tested on: BT-549 breast
K-562 leukemia = tested on: K-562 leukemia
SF-539 CNS = tested on: SF-539 CNS
OVCAR-5 ovarian = tested on: OVCAR-5 ovarian
OVCAR-4 ovarian = tested on: OVCAR-4 ovarian
IGROV1 ovarian = tested on: IGROV1 ovarian
SNB-19 CNS = tested on: SNB-19 CNS
HCT-116 colon = tested on: HCT-116 colon
COLO 205 colon = tested on: COLO 205 colon
SK-MEL-28 melanoma = tested on: SK-MEL-28 melanoma
NCI-H23 lung = tested on: NCI-H23 lung
ACHN renal = tested on: ACHN renal
HCC-2998 colon = tested on: HCC-2998 colon
MALME-3M melanoma = tested on: MALME-3M melanoma
OVCAR-8 ovarian = tested on: OVCAR-8 ovarian
T-47D breast = tested on: T-47D breast
UACC-62 melanoma = tested on: UACC-62 melanoma
SW-620 colon = tested on: SW-620 colon
OVCAR-3 ovarian = tested on: OVCAR-3 ovarian
HL-60(TB) leukemia = tested on: HL-60(TB) leukemia
SR leukemia = tested on: SR leukemia

Cc1cc(C)c([S@@](=O)O[C@@H]2[C@H]3OC(C)(C)O[C@H]3O[C@@H]2[C@H]2COC(C)(C)O2)c(C)c1
TGI (HT29 colon): 85.7 µM
TGI (U251 CNS): 44.1 µM
TGI (KM12 colon): 40.2 µM
TGI (NCI/ADR-RES ovarian): 57 µM
TGI (LOX IMVI melanoma): 30.1 µM
TGI (RXF 393 renal): 36.3 µM
TGI (M14 melanoma): 59.4 µM
TGI (SN12C renal): 42.7 µM
TGI (HS 578T breast): > 100 µM
TGI (SK-MEL-2 melanoma): 86.1 µM
TGI (MOLT-4 leukemia): 43.3 µM
TGI (UO-31 renal): 33.2 µM
TGI (HCT-15 colon): > 100 µM
TGI (MDA-N): 65.4 µM
TGI (SK-MEL-5 melanoma): 97.9 µM
TGI (UACC-257 melanoma): 46.2 µM
TGI (SK-OV-3 ovarian): > 100 µM
TGI (MDA-MB-231 breast): 60.5 µM
TGI (CCRF-CEM leukemia): 88.7 µM
TGI (NCI-H226 lung): 53.2 µM
TGI (SNB-75 CNS): 59.6 µM
TGI (MCF7 breast): 57.9 µM
TGI (NCI-H522 lung): 24.1 µM
TGI (A498 renal): 47.2 µM
TGI (HOP-62 NSCLC): 51.3 µM
TGI (PC-3 prostate): 41.2 µM
TGI (A549 NSCLC): > 100 µM
TGI (SF-268 CNS): 95.3 µM
TGI (EKVX NSCLC): 61.2 µM
TGI (TK-10 renal): 59.7 µM
TGI (786-0 renal): 64.6 µM
TGI (NCI-H460 lung): 62.9 µM
TGI (RPMI-8226 leukemia): 50.5 µM
TGI (HOP-92 NSCLC): 38.4 µM
TGI (SF-295 CNS): > 100 µM
TGI (MDA-MB-435): 40.2 µM
TGI (DU-145 prostate): 89.2 µM
TGI (CAKI-1 renal): 9.11 µM
TGI (BT-549 breast): 30.6 µM
TGI (K-562 leukemia): 76.8 µM
TGI (SF-539 CNS): 39.5 µM
TGI (OVCAR-5 ovarian): 83.9 µM
TGI (OVCAR-4 ovarian): 42.8 µM
TGI (IGROV1 ovarian): 18 µM
TGI (SNB-19 CNS): > 100 µM
TGI (HCT-116 colon): 57 µM
TGI (COLO 205 colon): 38.9 µM
TGI (SK-MEL-28 melanoma): 90.5 µM
TGI (NCI-H23 lung): 89.5 µM
TGI (ACHN renal): 33.5 µM
TGI (HCC-2998 colon): 41.7 µM
TGI (MALME-3M melanoma): 80.1 µM
TGI (OVCAR-8 ovarian): 37.6 µM
TGI (T-47D breast): > 100 µM
TGI (UACC-62 melanoma): 51.6 µM
TGI (SW-620 colon): 49.3 µM
TGI (OVCAR-3 ovarian): 41.6 µM
TGI (HL-60(TB) leukemia): 28.7 µM
TGI (SR leukemia): 49 µM

Cc1ccc(N2CN3OC(=O)N(c4ccccc4)[C@@]3(c3ccccc3)C2)cc1
TGI (HT29 colon): > 100 µM
TGI (U251 CNS): > 100 µM
TGI (KM12 colon): > 100 µM
TGI (NCI/ADR-RES ovarian): > 100 µM
TGI (LOX IMVI melanoma): > 100 µM
TGI (RXF 393 renal): > 100 µM
TGI (M14 melanoma): > 100 µM
TGI (SN12C renal): > 100 µM
TGI (HS 578T breast): > 100 µM
TGI (SK-MEL-2 melanoma): > 100 µM
TGI (MOLT-4 leukemia): > 100 µM
TGI (UO-31 renal): > 100 µM
TGI (HCT-15 colon): > 100 µM
TGI (MDA-N): > 100 µM
TGI (SK-MEL-5 melanoma): > 100 µM
TGI (UACC-257 melanoma): > 100 µM
TGI (SK-OV-3 ovarian): > 100 µM
TGI (MDA-MB-231 breast): > 100 µM
TGI (CCRF-CEM leukemia): > 100 µM
TGI (NCI-H226 lung): > 100 µM
TGI (SNB-75 CNS): > 100 µM
TGI (MCF7 breast): > 100 µM
TGI (NCI-H522 lung): > 100 µM
TGI (A498 renal): > 100 µM
TGI (HOP-62 NSCLC): > 100 µM
TGI (PC-3 prostate): > 100 µM
TGI (A549 NSCLC): > 100 µM
TGI (SF-268 CNS): > 100 µM
TGI (EKVX NSCLC): > 100 µM
TGI (TK-10 renal): > 100 µM
TGI (786-0 renal): > 100 µM
TGI (NCI-H460 lung): > 100 µM
TGI (RPMI-8226 leukemia): > 100 µM
TGI (HOP-92 NSCLC): > 100 µM
TGI (SF-295 CNS): > 100 µM
TGI (MDA-MB-435): > 100 µM
TGI (DU-145 prostate): > 100 µM
TGI (CAKI-1 renal): > 100 µM
TGI (BT-549 breast): > 100 µM
TGI (K-562 leukemia): > 100 µM
TGI (SF-539 CNS): > 100 µM
TGI (OVCAR-5 ovarian): > 100 µM
TGI (OVCAR-4 ovarian): > 100 µM
TGI (IGROV1 ovarian): > 100 µM
TGI (SNB-19 CNS): > 100 µM
TGI (HCT-116 colon): > 100 µM
TGI (COLO 205 colon): > 100 µM
TGI (SK-MEL-28 melanoma): > 100 µM
TGI (NCI-H23 lung): > 100 µM
TGI (ACHN renal): > 100 µM
TGI (HCC-2998 colon): > 100 µM
TGI (MALME-3M melanoma): > 100 µM
TGI (OVCAR-8 ovarian): > 100 µM
TGI (T-47D breast): 88.1 µM
TGI (UACC-62 melanoma): > 100 µM
TGI (SW-620 colon): > 100 µM
TGI (OVCAR-3 ovarian): > 100 µM
TGI (HL-60(TB) leukemia): > 100 µM
TGI (SR leukemia): > 100 µM
